Reference: patent publication EP3046573B1, “AMYLIN ANALOGUES” (Zealand Pharma A/S, priority 2013, dated 2015)
Read-outs that look alike come from different tables or passages of the source. Numbered stars: 1 amine (or outer) side, 2 acyl side, 3 side chain; on linkers, the order of the positions; unused ones are H or OH. Bridge positions count the residues as written; N and C are the ends. Square brackets hold non-standard residues; d marks the D form. Peptide text beside a SMILES is read from it. * marks the point of attachment. Pro(trans-4-Ph) = O=C(O)[C@@H]1C[C@@H](c2ccccc2)CN1; C20 diacid = O=C(O)CCCCCCCCCCCCCCCCCCC(=O)*; γGlu = O=C(O)[C@H](CCC(=O)[*:2])N[*:1]; Hyp = O=C(O)[C@@H]1C[C@@H](O)CN1; NMeI = CC[C@H](C)[C@H](NC)C(=O)O; Sar = CNCC(=O)O

Columns and labels:
[1] = Solubility assessment (turbidity absorbance at 325 nm); format: physicochemical; settings: stock 2 mg/ml diluted 1:1, ambient temperature (typically 25°C), n=1; for Solubility, Acetate buffer pH 4: 100 mM acetate buffer pH 4.0; for Solubility, Acetate buffer pH 5: 100 mM acetate buffer pH 5.0; for Solubility, Histidine buffer pH 6: 100 mM histidine buffer pH 6.0; for Solubility, Histidine buffer pH 7: 100 mM histidine buffer pH 7.0; for Solubility, Phosphate buffer pH 6: 100 mM phosphate buffer pH 6.0; for Solubility, Phosphate buffer pH 7: 100 mM phosphate buffer pH 7.0; for Solubility, Phosphate buffer pH 7.5: 100 mM phosphate buffer pH7.5
Method in brief: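 Turbidimetric screen across pH 4.0–7.5 in 100 mM acetate, histidine and phosphate buffers. A 2 mg/ml peptide stock (pH 2.5) was diluted 1:1 into each, then A325 measured at ambient temperature; values ≤ 0.02 AU denoted solubility of 1 mg/ml or more.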

[2] = biological target: T1, human amylin receptor 3 (hAMYR3) consisting of hCTR2 co-expressed with human Receptor Activity Modifying Protein 3 (hRAMP3) (Homo sapiens, UniProt O60896+P30988); test: hAMYR3 assay: induction of cAMP (AlphaScreen cAMP Assay kit) in COS7 cells expressing hAMYR3; format: cell-based
T1 construct: expressed in transfected cells
T1 sequence (P30988 25-474): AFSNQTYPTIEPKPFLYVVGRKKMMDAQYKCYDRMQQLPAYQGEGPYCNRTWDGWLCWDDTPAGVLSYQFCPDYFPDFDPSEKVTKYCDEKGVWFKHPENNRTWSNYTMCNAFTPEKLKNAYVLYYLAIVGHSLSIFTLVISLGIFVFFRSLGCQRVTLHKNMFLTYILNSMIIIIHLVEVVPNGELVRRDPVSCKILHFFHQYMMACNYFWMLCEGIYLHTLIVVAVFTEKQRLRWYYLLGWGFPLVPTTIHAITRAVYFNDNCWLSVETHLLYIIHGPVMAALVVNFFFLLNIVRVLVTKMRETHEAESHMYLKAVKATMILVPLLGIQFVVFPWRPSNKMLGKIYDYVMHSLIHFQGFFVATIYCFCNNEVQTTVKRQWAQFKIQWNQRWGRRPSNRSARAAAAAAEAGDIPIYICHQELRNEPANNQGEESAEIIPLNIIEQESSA
T1 sequence (O60896 24-148 partner): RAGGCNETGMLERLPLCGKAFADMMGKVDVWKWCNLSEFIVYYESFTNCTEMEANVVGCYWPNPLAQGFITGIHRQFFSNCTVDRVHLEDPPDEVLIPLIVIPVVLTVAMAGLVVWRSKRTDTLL
Method in brief: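 cAMP accumulation read by AlphaScreen in lysates of RAMP-naive COS7 cells stably transfected with hCTR2 plus hRAMP3. Cells exposed to peptide dilutions for 15 min, 37° C, with 100 µM IBMX; 4PL fitting gave EC50 and efficacy relative to pramlintide.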

[3] = biological target: T2, human calcitonin receptor (hCTR2) (Homo sapiens, UniProt P30988); test: hCTR2 assay: induction of cAMP (AlphaScreen cAMP Assay kit) in COS7 cells expressing hCTR2; format: cell-based
T2 construct: expressed in transfected cells
T2 sequence (P30988 25-474): T1 sequence (P30988 25-474)
Method in brief: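 Peptide-induced cAMP in hCTR2-expressing COS7 cells, 15 min at 37° C with phosphodiesterase inhibitor IBMX (100 µM), detected by AlphaScreen; potency from 4PL curves.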

[4] = cAMP induction in COS7 cells expressing hCTR2, average of a minimum of 3 determinations, read-out: hCTR2 EC50
[5] = cAMP induction in COS7 cells expressing hAMYR3, average of a minimum of 3 determinations, read-out: hAMY R3 EC50

## CC[C@H](C)[C@@H](C(=O)N[C@@H](CC(C)C)C(=O)N[C@@H](CO)C(=O)N[C@@H](CO)C(=O)N[C@H](C(=O)N[C@@H](CCC(=O)O)C(=O)N[C@H](C(=O)NCC(=O)N[C@@H](CO)C(=O)N[C@@H](CCC(=O)O)C(=O)N[C@H](C(=O)N1CCC[C@H]1C(N)=O)[C@@H](C)O)C(C)C)[C@@H](C)O)N(C)C(=O)[C@H](C)NC(=O)CN(C)C(=O)[C@H](Cc1ccccc1)NC(=O)[C@H](CO)NC(=O)[C@H](CO)NC(=O)[C@H](CO)NC(=O)[C@H](CO)NC(=O)[C@H](CCCNC(=N)N)NC(=O)[C@H](Cc1c[nH]cn1)NC(=O)[C@H](CC(C)C)NC(=O)[C@H](Cc1ccccc1)NC(=O)[C@H](CCC(=O)O)NC(=O)[C@H](C)NC(=O)[C@H](CC(C)C)NC(=O)[C@H](CCCNC(=N)N)NC(=O)CNC(=O)[C@@H](NC(=O)[C@H](C)NC(=O)[C@@H]1CSSC[C@H](NC(=O)[C@H](CCCNC(=N)N)NC(=O)CC[C@H](NC(=O)CCCCCCCCCCCCCCCCCCC(=O)O)C(=O)O)C(=O)NCC(=O)N[C@@H]([C@@H](C)O)C(=O)N[C@@H](C)C(=O)N[C@@H]([C@@H](C)O)C(=O)N1)[C@@H](C)O [Compound 131, [19CD]-isoGlu-RC()GTATC()ATGRLAEFLHRSSSSF-Gly(Me)-A-Ile(Me)-LSSTEVGSETP-NH2] ({C20 diacid-γGlu}-RCGTATCATGRLAEFLHRSSSSF[Sar]A[NMeI]LSSTEVGSETP-NH2; disulfide 2-7)
[1]
  Solubility, Acetate buffer pH 4: SS (SS indicates solubility ≥ 1mg/ml)
  Solubility, Acetate buffer pH 5: SS (SS indicates solubility ≥ 1mg/ml)
  Solubility, Histidine buffer pH 6: SS (SS indicates solubility ≥ 1mg/ml)
  Solubility, Histidine buffer pH 7: SS (SS indicates solubility ≥ 1mg/ml)
  Solubility, Phosphate buffer pH 6: SS (SS indicates solubility ≥ 1mg/ml)
  Solubility, Phosphate buffer pH 7: SS (SS indicates solubility ≥ 1mg/ml)
  Solubility, Phosphate buffer pH 7.5: SS (SS indicates solubility ≥ 1mg/ml)
[2]
  EC50: 0.18 nM
[3]; [4]
  EC50: 0.1 nM

## CC[C@H](C)[C@@H](C(=O)N[C@@H](CC(C)C)C(=O)N[C@@H](CO)C(=O)N[C@@H](CO)C(=O)N[C@H](C(=O)N[C@@H](CC(N)=O)C(=O)N[C@H](C(=O)NCC(=O)N[C@@H](CO)C(=O)N[C@@H](CC(N)=O)C(=O)N[C@H](C(=O)N1C[C@H](c2ccccc2)C[C@H]1C(N)=O)[C@@H](C)O)C(C)C)[C@@H](C)O)N(C)C(=O)[C@H](C)NC(=O)CN(C)C(=O)[C@H](Cc1ccccc1)NC(=O)[C@H](CC(N)=O)NC(=O)[C@H](CC(N)=O)NC(=O)[C@H](CO)NC(=O)[C@H](CO)NC(=O)[C@H](CCCNC(=N)N)NC(=O)[C@H](Cc1c[nH]cn1)NC(=O)[C@H](CC(C)C)NC(=O)[C@H](Cc1ccccc1)NC(=O)[C@H](CCC(=O)O)NC(=O)[C@H](C)NC(=O)[C@H](CC(C)C)NC(=O)[C@H](CCCNC(=N)N)NC(=O)[C@H](CCC(N)=O)NC(=O)[C@@H](NC(=O)[C@H](C)NC(=O)[C@@H]1CSSC[C@H](NC(=O)[C@H](CCCNC(=N)N)NC(=O)CC[C@H](NC(=O)CCCCCCCCCCCCCCCCCCC(=O)O)C(=O)O)C(=O)N[C@@H](CC(N)=O)C(=O)N[C@@H]([C@@H](C)O)C(=O)N[C@@H](C)C(=O)N[C@@H]([C@@H](C)O)C(=O)N1)[C@@H](C)O [Compound 112, [19CD]-isoGlu-RC()NTATC()ATQRLAEFLHRSSNNF-Gly(Me)-A-Ile(Me)-LSSTNVGSNT-Php-NH2] ({C20 diacid-γGlu}-RCNTATCATQRLAEFLHRSSNNF[Sar]A[NMeI]LSSTNVGSNT[Pro(trans-4-Ph)]-NH2; disulfide 2-7)
[1]
  Solubility, Acetate buffer pH 4: SS (SS indicates solubility ≥ 1mg/ml)
  Solubility, Acetate buffer pH 5: SS (SS indicates solubility ≥ 1mg/ml)
  Solubility, Histidine buffer pH 6: SS (SS indicates solubility ≥ 1mg/ml)
  Solubility, Histidine buffer pH 7: II (II indicates solubility ≤ 1 mg/ml)
  Solubility, Phosphate buffer pH 6: II (II indicates solubility ≤ 1 mg/ml)
  Solubility, Phosphate buffer pH 7: SS (SS indicates solubility ≥ 1mg/ml)
  Solubility, Phosphate buffer pH 7.5: II (II indicates solubility ≤ 1 mg/ml)
[2]
  EC50: 0.15 nM
[3]
  EC50: 0.16 nM

## CC[C@H](C)[C@@H](C(=O)N[C@@H](CC(C)C)C(=O)N[C@@H](CO)C(=O)N[C@@H](CO)C(=O)N[C@H](C(=O)N[C@@H](CC(=O)O)C(=O)N[C@H](C(=O)NCC(=O)N[C@@H](CO)C(=O)N[C@@H](CC(=O)O)C(=O)N[C@H](C(=O)N1CCC[C@H]1C(N)=O)[C@@H](C)O)C(C)C)[C@@H](C)O)N(C)C(=O)[C@H](C)NC(=O)CN(C)C(=O)[C@H](Cc1ccccc1)NC(=O)[C@H](CO)NC(=O)[C@H](CO)NC(=O)[C@H](CO)NC(=O)[C@H](CO)NC(=O)[C@H](CCCNC(=N)N)NC(=O)[C@H](Cc1c[nH]cn1)NC(=O)[C@H](CC(C)C)NC(=O)[C@H](Cc1ccccc1)NC(=O)[C@H](CCC(=O)O)NC(=O)[C@H](C)NC(=O)[C@H](CC(C)C)NC(=O)[C@H](CCCNC(=N)N)NC(=O)[C@H](CCC(=O)O)NC(=O)[C@@H](NC(=O)[C@H](C)NC(=O)[C@@H]1CSSC[C@H](NC(=O)[C@H](CCCNC(=N)N)NC(=O)CC[C@H](NC(=O)CCCCCCCCCCCCCCCCCCC(=O)O)C(=O)O)C(=O)N2CCC[C@H]2C(=O)N[C@@H]([C@@H](C)O)C(=O)N[C@@H](C)C(=O)N[C@@H]([C@@H](C)O)C(=O)N1)[C@@H](C)O [Compound 173, [19CD]-isoGlu-RC()PTATC()ATERLAEFLHRSSSSF-Gly(Me)-A-Ile(Me)-LSSTDVGSDTP-NH2] ({C20 diacid-γGlu}-RCPTATCATERLAEFLHRSSSSF[Sar]A[NMeI]LSSTDVGSDTP-NH2; disulfide 2-7)
[2]; [5]
  EC50: 0.14 nM
[3]; [4]
  EC50: 0.062 nM

## CC[C@H](C)[C@@H](C(=O)N[C@@H](CC(C)C)C(=O)N[C@@H](CO)C(=O)N[C@@H](CO)C(=O)N[C@H](C(=O)N[C@@H](CCC(=O)O)C(=O)N[C@H](C(=O)NCC(=O)N[C@@H](CO)C(=O)N[C@@H](CCC(=O)O)C(=O)N[C@H](C(=O)N1C[C@H](O)C[C@H]1C(N)=O)[C@@H](C)O)C(C)C)[C@@H](C)O)N(C)C(=O)[C@H](C)NC(=O)CN(C)C(=O)[C@H](Cc1ccccc1)NC(=O)[C@H](CO)NC(=O)[C@H](CO)NC(=O)[C@H](CO)NC(=O)[C@H](CO)NC(=O)[C@H](CCCNC(=N)N)NC(=O)[C@H](Cc1c[nH]cn1)NC(=O)[C@H](CC(C)C)NC(=O)[C@H](Cc1ccccc1)NC(=O)[C@H](CCC(=O)O)NC(=O)[C@H](C)NC(=O)[C@H](CC(C)C)NC(=O)[C@H](CCCNC(=N)N)NC(=O)[C@H](CCC(=O)O)NC(=O)[C@@H](NC(=O)[C@H](C)NC(=O)[C@@H]1CSSC[C@H](NC(=O)[C@H](CCCNC(=N)N)NC(=O)CC[C@H](NC(=O)CCCCCCCCCCCCCCCCCCC(=O)O)C(=O)O)C(=O)N[C@@H](CCC(=O)O)C(=O)N[C@@H]([C@@H](C)O)C(=O)N[C@@H](C)C(=O)N[C@@H]([C@@H](C)O)C(=O)N1)[C@@H](C)O [Compound 170, [19CD]-isoGlu-RC()ETATC()ATERLAEFLHRSSSSF-Gly(Me)-A-Ile(Me)-LSSTEVGSET-Hyp-NH2] ({C20 diacid-γGlu}-RCETATCATERLAEFLHRSSSSF[Sar]A[NMeI]LSSTEVGSET[Hyp]-NH2; disulfide 2-7)
[2]; [5]
  EC50: 0.57 nM
[3]; [4]
  EC50: 0.65 nM
